The source of these data is patent EP0820772A1, “IMMUNOMODULATING MEDICINAL AGENT” (Travkin, Oleg Viktorovich, priority 1995, dated 1996).

Data set [1] concerns Herpes simplex - 1 (MS strain). In words: Herpetic encephalitis, mortality. In kind it is in vivo. To be noted: 100 LD 50; 7 days after infection; intraperitoneally; AraA 20 mg./kg. every day; prototype 400 mg./kg. and proposed drug 25 mg./kg. 4 h before and 24 h after infection; control 100%.
For data set [2], the system named is Venezuelan equine encephalitis virus (SPF strain). In kind it is in vivo. As to conditions: intraperitoneally, Poly (G) 0.1 g./kg. and prototype 200 mg./kg. at infection and 24 h after, proposed drug 20 mg./kg 4 h before and 24 h after infection.
For data set [3] the following is noted: in vivo.
For data set [4], the system named is leukosis L 1210. The data set is described as follows: Treatment of developing leukosis L 1210. As to conditions: orally on days 1, 2, 3 after transplantation; proposed drug 30 mg./kg., prototype 400 mg./kg.; control 96.
Data set [5] concerns Herpes simplex-2 (Ela 5699 strain). In words: Rabbit keratitis, severity of clinical symptoms. To be noted: daily instillation: megosin 3% ointment, prototype 5% ointment, proposed drug 2.1% suspension; for Index of severity of clinical symptoms on day 5 following infection: control 14; for Index of severity of clinical symptoms on day 7 following infection: control 17; for Index of severity of clinical symptoms on day 9 following infection: control 13; for Index of severity of clinical symptoms on day 14 following infection: control 2.

Data set [6] concerns Lympho-sarcoma. The data set is described as follows: Antitumorous effectiveness, lympho-sarcoma tumour mass. To be noted: intraperitoneally; proposed drug 30mg./kg. and prototype 300 mg./kg. on days 1, 2, 3 after transplantation; Adriamycin 600 μg./kg. on days 1 and 3; control 1124.
Data set [7] relates to Erlich’s carcinoma. In words: Antitumorous effectiveness, Erlich's carcinoma tumour mass. To be noted: intraperitoneally; proposed drug 300 mg./kg. and prototype 300 mg./kg. on days 1 and 3 after transplantation; Adriamycin 600 μg on day 1; control 540.
Data set [8] has as its system Semlika forest virus. In words: Semlika forest virus infection, mortality. In kind it is in vivo. As to conditions: 30 LD 50; 12 days after infection; intraperitoneally; Remantadin 20 mg./kg 4 h and 24 h after infection; proposed drug 10 mg./kg 4 h before and 24 h after infection; control 80%.

`CN(C)CCOc1ccc2cc3cc([N+](=O)[O-])c(OCCN(C)C)c(Cl)c3nc2c1Cl` [The prototype, 3.6 - bis(2-dimethylaminetoxy)-4.5-dichlorine-2-nitroacridine]: in data set [1], the “Indices of efficacy, % mortality” value was 22%. Moreover, the “Degree of suppression of viral reproduction in the brain 48 hours after infection, expressed as a percentage relative to the control” value in data set [2] came to 74%. Moreover, the “toxicity (therapeutic index)” value in data set [3] is reported as 10-15. Moreover, the “Percentage of blastular cells in peripheral blood” value in data set [4] worked out at 40%. Besides, in data set [5], the “Index of severity of clinical symptoms on day 5 following infection” value amounted to 10, the “Index of severity of clinical symptoms on day 7 following infection” value came out at 14, the “Index of severity of clinical symptoms on day 9 following infection” value is listed as 8 and the “Index of severity of clinical symptoms on day 14 following infection” value was 1. For the same molecule, the “Indices of efficacy (Mean tumour mass (mg.))” value in data set [6] was 820 mg. Besides, the “Indices of efficacy (Mean tumour mass (mg.))” value in data set [7] is 200 mg.
In the case of `CC(N)C12CC3CC(CC(C3)C1)C2` (stereo not drawn) [Remantadin], the “Indices of efficacy, % mortality” value in data set [8] is 20%, 12 days after infection.
In the case of “ether of 10 - methylencarboxylat-9-acridone [The proposed drug]”, in data set [8], the “Indices of efficacy, % mortality” value came to 0%. In data set [1], the “Indices of efficacy, % mortality” value is reported as 5%. For the same molecule, the “Degree of suppression of viral reproduction in the brain 48 hours after infection, expressed as a percentage relative to the control” value in data set [2] worked out at 98%. In data set [4], the “Percentage of blastular cells in peripheral blood” value amounted to 18%. Further, in data set [5], the “Index of severity of clinical symptoms on day 5 following infection” value is recorded as 5, the “Index of severity of clinical symptoms on day 7 following infection” value was 3, the “Index of severity of clinical symptoms on day 9 following infection” value is listed as 1 and the “Index of severity of clinical symptoms on day 14 following infection” value amounted to 0. Further, in data set [6], the “Indices of efficacy (Mean tumour mass (mg.))” value worked out at 534 mg. The “Indices of efficacy (Mean tumour mass (mg.))” value in data set [7] was 74 mg.
On to `COc1cccc2c1C(=O)c1c(O)c3c(c(O)c1C2=O)C[C@@](O)(C(=O)CO)C[C@@H]3O[C@H]1C[C@H](N)[C@H](O)[C@H](C)O1` [Adriamycin], for which the “Indices of efficacy (Mean tumour mass (mg.))” value in data set [6] came to 622 mg; in data set [7] it was 100 mg.
For the molecule `Nc1ncnc2c1ncn2[C@@H]1O[C@H](CO)[C@@H](O)[C@@H]1O` [AraA, adenin - arabinosid], the “Indices of efficacy, % mortality” value in data set [1] is reported as 42%, 7 days after infection.
